In patent US9896435B2, “N-pyrrolidinyl,N′-pyrazolyl-urea, thiourea, guanidine and cyanoguanidine compounds as TrkA kinase inhibitors” (Array BioPharma Inc., priority 2012, dated 2018):

How the values were obtained:
Test in all cases: KinaseProfiler off-target kinase profiling
Assay type in all cases: biochemical
Settings in all cases: 10 μM, ATP near Km
TAO3 = TAO3 (Homo sapiens (Human), UniProt Q9H2K8)
How it was run: (§1)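 Duplicate measurements were taken for compound at 10 μM with ATP near each kinase's Km. Values represent mean percent of control.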

GSK3beta = GSK3beta (Homo sapiens (Human), UniProt P49841)
How it was run: as §1

CK1delta = CK1delta (Homo sapiens (Human), UniProt P48730)
CK1delta, sequence (P48730 whole entry): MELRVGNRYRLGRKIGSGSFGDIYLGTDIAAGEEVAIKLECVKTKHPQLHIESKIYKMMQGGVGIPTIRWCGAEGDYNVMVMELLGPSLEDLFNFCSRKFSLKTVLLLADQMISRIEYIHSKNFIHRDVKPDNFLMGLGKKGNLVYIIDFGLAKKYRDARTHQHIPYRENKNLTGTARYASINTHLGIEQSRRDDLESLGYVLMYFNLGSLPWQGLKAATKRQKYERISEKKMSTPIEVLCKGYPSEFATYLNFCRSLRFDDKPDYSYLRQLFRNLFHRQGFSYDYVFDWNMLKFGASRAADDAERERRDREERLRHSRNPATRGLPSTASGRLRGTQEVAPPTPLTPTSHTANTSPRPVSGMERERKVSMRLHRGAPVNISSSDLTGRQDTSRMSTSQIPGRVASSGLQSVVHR
How it was run: as §1

FGFR3 = FGFR3 (Homo sapiens (Human), UniProt P22607)
FGFR3, sequence (P22607 23-806): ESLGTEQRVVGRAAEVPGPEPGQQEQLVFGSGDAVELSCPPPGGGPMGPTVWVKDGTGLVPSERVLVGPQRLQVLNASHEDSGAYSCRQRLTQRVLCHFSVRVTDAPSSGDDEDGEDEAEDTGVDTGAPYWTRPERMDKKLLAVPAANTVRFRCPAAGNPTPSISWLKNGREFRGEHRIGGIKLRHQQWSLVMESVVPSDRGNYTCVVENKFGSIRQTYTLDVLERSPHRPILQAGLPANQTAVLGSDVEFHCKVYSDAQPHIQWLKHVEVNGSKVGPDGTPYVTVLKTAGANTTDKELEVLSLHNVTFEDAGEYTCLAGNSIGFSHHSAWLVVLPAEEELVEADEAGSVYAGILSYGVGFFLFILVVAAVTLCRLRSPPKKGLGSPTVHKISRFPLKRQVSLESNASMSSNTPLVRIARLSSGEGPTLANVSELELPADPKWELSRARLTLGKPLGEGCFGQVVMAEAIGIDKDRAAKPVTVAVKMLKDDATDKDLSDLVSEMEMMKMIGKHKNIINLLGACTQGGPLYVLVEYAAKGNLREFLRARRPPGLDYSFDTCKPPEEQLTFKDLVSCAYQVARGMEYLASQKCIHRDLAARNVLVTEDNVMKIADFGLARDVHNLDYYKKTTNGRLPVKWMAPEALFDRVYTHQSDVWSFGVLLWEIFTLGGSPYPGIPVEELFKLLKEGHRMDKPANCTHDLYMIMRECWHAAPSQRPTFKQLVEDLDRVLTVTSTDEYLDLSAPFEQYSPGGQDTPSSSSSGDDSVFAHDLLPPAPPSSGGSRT
How it was run: as §1

PKCzeta = PKCzeta (Homo sapiens (Human), UniProt Q05513)
How it was run: as §1

EphA4 = EphA4 (Homo sapiens (Human), UniProt P54764)
How it was run: as §1

PRKG1alpha = PRKG1alpha (Homo sapiens (Human), UniProt Q13976)
How it was run: as §1

DMPK = DMPK (Homo sapiens (Human), UniProt Q09013)
How it was run: as §1

CK1_y = test system: CK1_y
How it was run: as §1

DAPK1 = DAPK1 (Homo sapiens (Human), UniProt P53355)
How it was run: as §1

Pim-3 = Pim-3 (Homo sapiens (Human), UniProt Q86V86)
How it was run: as §1

PTK5 = PTK5 (Homo sapiens (Human), UniProt P42685)
PTK5, sequence (P42685 whole entry): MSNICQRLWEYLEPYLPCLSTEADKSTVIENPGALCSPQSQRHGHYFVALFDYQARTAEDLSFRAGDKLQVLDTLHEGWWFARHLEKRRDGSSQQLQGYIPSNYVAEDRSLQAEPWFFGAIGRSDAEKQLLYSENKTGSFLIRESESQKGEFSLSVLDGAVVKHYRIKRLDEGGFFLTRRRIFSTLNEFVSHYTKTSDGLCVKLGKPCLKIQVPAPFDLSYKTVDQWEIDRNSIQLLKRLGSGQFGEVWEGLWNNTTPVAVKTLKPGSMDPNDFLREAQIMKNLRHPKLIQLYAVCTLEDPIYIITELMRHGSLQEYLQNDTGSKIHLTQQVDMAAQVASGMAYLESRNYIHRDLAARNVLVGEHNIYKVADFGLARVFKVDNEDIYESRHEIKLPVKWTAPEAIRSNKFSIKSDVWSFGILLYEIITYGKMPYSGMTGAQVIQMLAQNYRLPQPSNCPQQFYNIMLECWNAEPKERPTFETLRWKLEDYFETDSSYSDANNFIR
How it was run: as §1

Abl2 = Abl2 (Homo sapiens (Human), UniProt P42684)
How it was run: as §1

MKNK2 = MKNK2 (Homo sapiens (Human), UniProt Q9HBH9)
How it was run: as §1

Fes = Fes (Homo sapiens (Human), UniProt P07332)
Fes, sequence (P07332 whole entry): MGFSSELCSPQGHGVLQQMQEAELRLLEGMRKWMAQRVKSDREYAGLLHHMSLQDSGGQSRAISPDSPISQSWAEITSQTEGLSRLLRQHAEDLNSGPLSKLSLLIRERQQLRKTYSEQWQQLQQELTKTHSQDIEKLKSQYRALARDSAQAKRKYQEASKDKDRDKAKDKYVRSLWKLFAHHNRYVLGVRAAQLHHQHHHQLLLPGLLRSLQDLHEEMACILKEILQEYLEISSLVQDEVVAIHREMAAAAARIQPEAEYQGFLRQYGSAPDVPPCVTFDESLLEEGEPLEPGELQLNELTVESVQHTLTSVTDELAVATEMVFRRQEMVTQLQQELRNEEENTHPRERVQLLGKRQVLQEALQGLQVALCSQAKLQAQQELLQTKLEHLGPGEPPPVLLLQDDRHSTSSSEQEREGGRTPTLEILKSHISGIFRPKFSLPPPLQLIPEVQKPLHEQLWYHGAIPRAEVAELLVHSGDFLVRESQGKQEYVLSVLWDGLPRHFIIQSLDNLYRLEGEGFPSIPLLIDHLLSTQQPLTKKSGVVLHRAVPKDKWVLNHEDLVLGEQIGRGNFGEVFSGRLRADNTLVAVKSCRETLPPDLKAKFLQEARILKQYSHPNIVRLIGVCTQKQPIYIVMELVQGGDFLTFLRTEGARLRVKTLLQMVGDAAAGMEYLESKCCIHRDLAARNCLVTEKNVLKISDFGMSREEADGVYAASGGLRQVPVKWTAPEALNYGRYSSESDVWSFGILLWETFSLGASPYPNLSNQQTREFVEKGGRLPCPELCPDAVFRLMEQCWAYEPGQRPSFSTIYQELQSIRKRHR
How it was run: as §1

CDK2/cyclinE = CDK2/cyclinE (Homo sapiens (Human), UniProt P24941)
How it was run: as §1

ALK4 = ALK4 (Homo sapiens (Human), UniProt P36896)
How it was run: as §1

Rsk3 = Rsk3 (Homo sapiens (Human), UniProt Q15349)
How it was run: as §1

PhKgamma2 = PhKgamma2 (Homo sapiens (Human), UniProt P15735)
How it was run: as §1

MELK = MELK (Homo sapiens (Human), UniProt Q14680)
How it was run: as §1

MuSK = MuSK (Homo sapiens (Human), UniProt O15146)
MuSK, sequence (O15146 24-869): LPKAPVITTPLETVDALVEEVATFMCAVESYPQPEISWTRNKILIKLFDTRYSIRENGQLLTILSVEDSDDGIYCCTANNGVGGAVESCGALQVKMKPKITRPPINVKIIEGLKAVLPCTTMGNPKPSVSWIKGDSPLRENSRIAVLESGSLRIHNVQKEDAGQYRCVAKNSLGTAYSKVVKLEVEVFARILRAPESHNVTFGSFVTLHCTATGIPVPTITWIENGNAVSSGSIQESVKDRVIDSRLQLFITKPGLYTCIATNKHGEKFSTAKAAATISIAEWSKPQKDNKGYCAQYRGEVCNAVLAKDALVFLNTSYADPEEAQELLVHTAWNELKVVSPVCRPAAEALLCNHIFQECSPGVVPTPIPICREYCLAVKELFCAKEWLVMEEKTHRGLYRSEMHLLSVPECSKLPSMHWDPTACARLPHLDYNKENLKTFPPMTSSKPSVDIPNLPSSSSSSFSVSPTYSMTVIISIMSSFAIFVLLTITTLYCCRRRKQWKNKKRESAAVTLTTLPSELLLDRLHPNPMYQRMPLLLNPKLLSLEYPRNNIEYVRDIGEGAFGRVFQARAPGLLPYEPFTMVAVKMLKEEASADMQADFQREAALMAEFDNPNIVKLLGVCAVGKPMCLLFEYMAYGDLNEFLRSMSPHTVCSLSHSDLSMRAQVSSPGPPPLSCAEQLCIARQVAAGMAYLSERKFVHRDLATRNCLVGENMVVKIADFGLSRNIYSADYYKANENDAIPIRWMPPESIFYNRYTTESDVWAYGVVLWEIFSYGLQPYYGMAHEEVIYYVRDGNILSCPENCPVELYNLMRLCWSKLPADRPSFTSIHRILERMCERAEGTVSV
How it was run: as §1

PAK4 = PAK4 (Homo sapiens (Human), UniProt O96013)
How it was run: as §1

GSK3alpha = GSK3alpha (Homo sapiens (Human), UniProt P49840)
How it was run: as §1

MAP3K5 = MAP3K5 (Homo sapiens (Human), UniProt Q99683)
How it was run: as §1

AMPK(A1/B1/G1) = AMPK(A1/B1/G1) (Homo sapiens (Human), UniProt Q13131)
How it was run: as §1

CK1gamma1 = CK1gamma1 (Homo sapiens (Human), UniProt Q9HCP0)
How it was run: as §1

IGF-1R = IGF-1R (Homo sapiens (Human), UniProt P08069)
How it was run: as §1

Ron = Ron (Homo sapiens (Human), UniProt Q04912)
How it was run: as §1

CHK2 = CHK2 (Homo sapiens (Human), UniProt O96017)
How it was run: as §1

CLK3 = CLK3 (Homo sapiens (Human), UniProt P49761)
How it was run: as §1

EphB3 = EphB3 (Homo sapiens (Human), UniProt P54753)
How it was run: as §1

FAK2 = FAK2 (Homo sapiens (Human), UniProt Q14289)
How it was run: as §1

GRK7 = GRK7 (Homo sapiens (Human), UniProt Q8WTQ7)
How it was run: as §1

PKCiota = PKCiota (Homo sapiens (Human), UniProt P41743)
How it was run: as §1

Rse = Rse (Homo sapiens (Human), UniProt Q06418)
Rse, sequence (Q06418 41-890): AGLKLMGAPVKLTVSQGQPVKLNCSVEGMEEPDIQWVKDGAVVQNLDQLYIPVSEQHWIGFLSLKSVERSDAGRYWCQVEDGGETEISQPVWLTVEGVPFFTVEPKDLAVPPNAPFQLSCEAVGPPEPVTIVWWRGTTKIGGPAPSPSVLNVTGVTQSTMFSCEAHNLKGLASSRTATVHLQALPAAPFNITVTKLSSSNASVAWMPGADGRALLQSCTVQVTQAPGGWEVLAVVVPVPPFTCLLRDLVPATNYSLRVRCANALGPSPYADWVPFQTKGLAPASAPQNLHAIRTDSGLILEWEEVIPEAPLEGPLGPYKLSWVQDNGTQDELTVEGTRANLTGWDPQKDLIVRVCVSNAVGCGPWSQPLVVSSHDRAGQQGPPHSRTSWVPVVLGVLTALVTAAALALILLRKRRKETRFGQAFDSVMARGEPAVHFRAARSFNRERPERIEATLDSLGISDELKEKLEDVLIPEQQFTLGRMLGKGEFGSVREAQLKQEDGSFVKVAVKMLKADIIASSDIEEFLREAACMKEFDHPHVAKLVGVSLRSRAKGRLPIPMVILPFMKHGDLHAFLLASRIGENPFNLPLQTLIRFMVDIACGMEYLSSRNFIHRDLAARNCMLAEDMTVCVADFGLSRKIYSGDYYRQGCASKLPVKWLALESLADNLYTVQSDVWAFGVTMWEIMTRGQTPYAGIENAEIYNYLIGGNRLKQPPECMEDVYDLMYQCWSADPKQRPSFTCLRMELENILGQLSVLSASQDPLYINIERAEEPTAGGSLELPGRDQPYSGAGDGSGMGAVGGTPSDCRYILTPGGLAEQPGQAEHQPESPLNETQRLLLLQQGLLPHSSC
How it was run: as §1

c-RAF = c-RAF (Homo sapiens (Human), UniProt P04049, Y340D/Y341D)
How it was run: as §1

MST2 = MST2 (Homo sapiens (Human), UniProt Q13188)
How it was run: as §1

IRAK4 = IRAK4 (Homo sapiens (Human), UniProt Q9NWZ3)
IRAK4, sequence (Q9NWZ3 whole entry): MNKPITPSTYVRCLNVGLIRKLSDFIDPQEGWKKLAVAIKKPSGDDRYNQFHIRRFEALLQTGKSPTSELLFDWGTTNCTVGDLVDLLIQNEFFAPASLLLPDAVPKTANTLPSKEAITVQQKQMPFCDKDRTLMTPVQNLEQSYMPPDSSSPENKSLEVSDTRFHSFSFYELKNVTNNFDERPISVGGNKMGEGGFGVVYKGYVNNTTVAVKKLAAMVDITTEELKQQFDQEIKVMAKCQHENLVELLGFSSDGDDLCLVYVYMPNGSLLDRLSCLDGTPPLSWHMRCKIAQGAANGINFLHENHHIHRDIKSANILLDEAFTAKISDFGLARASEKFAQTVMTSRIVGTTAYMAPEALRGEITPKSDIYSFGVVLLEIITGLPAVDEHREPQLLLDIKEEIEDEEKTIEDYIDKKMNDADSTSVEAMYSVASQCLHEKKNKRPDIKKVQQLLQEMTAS
How it was run: as §1

Hck = Hck (Homo sapiens (Human), UniProt P08631)
How it was run: as §1

CK2alpha2 = CK2alpha2 (Homo sapiens (Human), UniProt P19784)
How it was run: as §1

| Structure (SMILES) | Avg POC (TAO3) [POC] | Avg POC (GSK3beta) [POC] | Avg POC (CK1delta) [POC] | Avg POC (FGFR3) [POC] | Avg POC (PKCzeta) [POC] | Avg POC (EphA4) [POC] | Avg POC (PRKG1alpha) [POC] | Avg POC (DMPK) [POC] | Avg POC (CK1_y) [POC] | Avg POC (DAPK1) [POC] | Avg POC (Pim-3) [POC] | Avg POC (PTK5) [POC] | Avg POC (Abl2) [POC] | Avg POC (MKNK2) [POC] | Avg POC (Fes) [POC] | Avg POC (CDK2/cyclinE) [POC] | Avg POC (ALK4) [POC] | Avg POC (Rsk3) [POC] | Avg POC (PhKgamma2) [POC] | Avg POC (MELK) [POC] | also measured |
| --- | --- | --- | --- | --- | --- | --- | --- | --- | --- | --- | --- | --- | --- | --- | --- | --- | --- | --- | --- | --- | --- |
| COCCN1C[C@@H](NC(=O)Nc2c(C)c(-c3ccnc(C)c3)nn2-c2ccccc2)[C@H](c2ccc(F)c(F)c2)C1 [Example 2, 1-((3S,4R)-4-(3,4-difluorophenyl)-1-(2-methoxyethyl)pyrrolidin-3-yl)-3-(4-methyl-3-(2-methylpyridin-4-yl)-1-phenyl-1H-pyrazol-5-yl)urea] | 97.5 | 108 | 108 | 111.5 | 100 | 108.5 | 108 | 98.5 | 103 | 97 | 104 | 108 | 101 | 101 | 135.5 | 103 | 112.5 | 98 | 90 | 110 | Avg POC (MuSK): 103.5 POC; Avg POC (PAK4): 103.5 POC; Avg POC (GSK3alpha): 94 POC; Avg POC (MAP3K5): 97.5 POC; Avg POC (AMPK(A1/B1/G1)): 118 POC; Avg POC (CK1gamma1): 92 POC; Avg POC (IGF-1R): 63 POC; Avg POC (Ron): 122.5 POC; Avg POC (CHK2): 101 POC; Avg POC (CLK3): 94 POC; Avg POC (EphB3): 105.5 POC; Avg POC (FAK2): 99.5 POC; Avg POC (GRK7): 104 POC; Avg POC (PKCiota): 95 POC; Avg POC (Rse): 96 POC; Avg POC (c-RAF): 103.5 POC; Avg POC (MST2): 99.5 POC; Avg POC (IRAK4): 132 POC; Avg POC (Hck): 116.5 POC; Avg POC (CK2alpha2): 119.5 POC |
| COCCN1C[C@@H](NC(=O)Nc2c(C)c(-c3cnc(C)nc3)nn2-c2ccccc2)[C@H](c2cc(F)cc(F)c2)C1 [Example 14, 1-((3S,4R)-4-(3,5-difluorophenyl)-1-(2-methoxyethyl)pyrrolidin-3-yl)-3-(4-methyl-3-(2-methylpyrimidin-5-yl)-1-phenyl-1H-pyrazol-5-yl)urea] | 100.5 | 114.5 | 108.5 | 133.5 | 99.5 | 103.5 | 100.5 | 105 | 97.5 | 99.5 | 108.5 | 91 | 95.5 | 101 | 125 | 98.5 | 115 | 96 | 88 | 111.5 | Avg POC (MuSK): 98.5 POC; Avg POC (PAK4): 100.5 POC; Avg POC (GSK3alpha): 101.5 POC; Avg POC (MAP3K5): 104 POC; Avg POC (AMPK(A1/B1/G1)): 106.5 POC; Avg POC (CK1gamma1): 80 POC; Avg POC (IGF-1R): 79 POC; Avg POC (Ron): 104 POC; Avg POC (CHK2): 97.5 POC; Avg POC (CLK3): 94 POC; Avg POC (EphB3): 138.5 POC; Avg POC (FAK2): 107 POC; Avg POC (GRK7): 97 POC; Avg POC (PKCiota): 104.5 POC; Avg POC (Rse): 96.5 POC; Avg POC (c-RAF): 89 POC; Avg POC (MST2): 101 POC; Avg POC (IRAK4): 110.5 POC; Avg POC (Hck): 108.5 POC; Avg POC (CK2alpha2): 120 POC |
